Assay results published in patent publication US8901111B2, “Aryl-substituted heterocyclic urea modulators of fatty acid amide hydrolase” (Janssen Pharmaceutica NV, priority 2009, dated 2014).
Structures can show the parent of a compound that is named as a salt.

What was measured:
rat FAAH = biological target: T1, rat FAAH (Rattus norvegicus, UniProt P97612); assay: Assay Method 2: FAAH assay, 3H-anandamide hydrolysis in homogenate of cells transfected with rat FAAH; type: biochemical; details: cell homogenate, 3H-AEA 80 nM, 1 h at rt, average of results
T1 construct: expressed in transfected cells; crude homogenate
T1 sequence (P97612 1-579): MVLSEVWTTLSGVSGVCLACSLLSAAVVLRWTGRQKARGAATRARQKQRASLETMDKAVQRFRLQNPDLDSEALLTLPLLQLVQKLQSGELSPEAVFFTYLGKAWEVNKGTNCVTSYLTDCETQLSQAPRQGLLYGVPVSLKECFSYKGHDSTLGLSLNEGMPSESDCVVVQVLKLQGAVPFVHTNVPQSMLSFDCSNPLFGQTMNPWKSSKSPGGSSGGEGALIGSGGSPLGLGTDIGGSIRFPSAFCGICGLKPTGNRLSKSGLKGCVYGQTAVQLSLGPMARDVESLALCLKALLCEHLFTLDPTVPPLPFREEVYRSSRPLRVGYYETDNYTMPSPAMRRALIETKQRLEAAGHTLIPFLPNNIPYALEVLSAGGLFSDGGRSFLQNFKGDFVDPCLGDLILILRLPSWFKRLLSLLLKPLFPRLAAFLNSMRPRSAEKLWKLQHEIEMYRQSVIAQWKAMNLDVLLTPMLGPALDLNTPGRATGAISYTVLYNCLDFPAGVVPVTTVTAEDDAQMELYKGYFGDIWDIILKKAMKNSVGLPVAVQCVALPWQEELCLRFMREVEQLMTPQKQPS
Experimental: A. Transfection of Cells with Rat FAAH
(§1) A 10-cm tissue culture dish with a confluent monolayer of SK-N-MC cells was split 2 days (d) prior to transfection. Using sterile technique, the media was removed and the cells were detached from the dish by the addition of trypsin. One fifth of the cells were then placed onto a new 10-cm dish. Cells were grown in a 37° C. incubator with 5% CO2 in Minimal Essential Media Eagle with 10% Fetal Bovine Serum. After 2 d, cells were approximately 80% confluent. These cells were removed from the dish with trypsin and pelleted in a clinical centrifuge. The pellet was re-suspended in 400 μL complete media and transferred to an electroporation cuvette with a 0.4 cm gap between the electrodes. Supercoiled rat FAAH cDNA (1 μg) was added to the cells and mixed. The voltage for the electroporation was set at 0.25 kV, and the capacitance was set at 960 μF. After electroporation, the cells were diluted into complete media (10 mL) and plated onto four 10-cm dishes. Because of the variability in the efficiency of electroporation, four different concentrations of cells were plated. The ratios used were 1:20, 1:10, and 1:5, with the remainder of the cells being added to the fourth dish. The cells were allowed to recover for 24 h before adding the selection media (complete media with 600 μg/mL G418). After 10 d, dishes were analyzed for surviving colonies of cells. Dishes with well-isolated colonies were used. Cells from individual colonies were isolated and tested.
(§2) T84 frozen cell pellets or transfected SK-N-MC cells (contents of 1×15 cm culture dishes) were homogenized in 50 mL of FAAH assay buffer (125 mM Tris, 1 mM EDTA, 0.2% Glycerol, 0.02% Triton X-100, 0.4 mM Hepes, pH 9). The assay mixture consisted of 50 μL of the cell homogenate, 10 μL of the test compound, and 40 μL of anandamide [1-^3H-ethanolamine] (^3H-AEA, Perkin-Elmer, 10.3 Ci/mmol), which was added last, for a final tracer concentration of 80 nM. The reaction mixture was incubated at rt for 1 h. During the incubation, 96-well Multiscreen filter plates (catalog number MAFCNOB50; Millipore, Bedford, Mass., USA) were loaded with 25 μL of activated charcoal (Multiscreen column loader, catalog number MACL09625, Millipore) and washed once with 100 μL of MeOH. Also during the incubation, 96-well DYNEX MicroLite plates (catalog number NL510410) were loaded with 100 μL of MicroScint40 (catalog number 6013641, Packard Bioscience, Meriden, Conn., USA). After the 1 h incubation, 60 μL of the reaction mixture were transferred to the charcoal plates, which were then assembled on top of the DYNEX plates using Centrifuge Alignment Frames (catalog number MACF09604, Millipore). The unbound labeled ethanolamine was centrifuged through to the bottom plate (5 min at 2000 rpm), which was preloaded with the scintillant, as described above. The plates were sealed and left at rt for 1 h before counting on a Hewlett Packard TopCount.
(§3) Results for compounds tested in these assays are summarized in Table 1, as an average of results obtained. Compounds were tested in the free base or trifluoroacetic acid salt form. Compounds tested in the trifluoroacetic acid salt form are indicated as such by a “*” designation after the example number. Where activity is shown as greater than (>) a particular value, the value is the solubility limit of the compound in the assay medium or the highest concentration tested in the assay.

FAAH = biological target: T2, FAAH (Homo sapiens, UniProt O00519); assay: Assay Method 1: FAAH assay, 3H-anandamide hydrolysis in homogenate of cells transfected with human FAAH; type: biochemical; parameters: expressed in transfected cells; crude homogenate (T84 cell pellets named as alternative); details: cell homogenate, 3H-AEA 80 nM, 1 h at rt, average of results
T2 sequence (O00519 1-579): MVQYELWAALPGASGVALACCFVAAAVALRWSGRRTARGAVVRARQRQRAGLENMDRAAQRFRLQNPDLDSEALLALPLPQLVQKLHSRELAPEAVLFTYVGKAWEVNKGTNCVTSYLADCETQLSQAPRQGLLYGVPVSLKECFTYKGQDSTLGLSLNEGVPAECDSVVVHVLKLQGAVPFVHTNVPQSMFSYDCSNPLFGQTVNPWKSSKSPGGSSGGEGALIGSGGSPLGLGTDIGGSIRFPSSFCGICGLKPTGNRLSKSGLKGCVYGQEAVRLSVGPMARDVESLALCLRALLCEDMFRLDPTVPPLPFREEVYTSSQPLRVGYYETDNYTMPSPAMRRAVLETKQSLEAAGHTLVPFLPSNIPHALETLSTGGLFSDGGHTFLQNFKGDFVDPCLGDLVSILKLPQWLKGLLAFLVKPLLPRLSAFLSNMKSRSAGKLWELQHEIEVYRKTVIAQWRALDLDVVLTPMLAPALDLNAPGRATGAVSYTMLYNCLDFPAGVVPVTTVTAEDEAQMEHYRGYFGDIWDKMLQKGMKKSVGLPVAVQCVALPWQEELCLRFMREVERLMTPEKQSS
Experimental: A. Transfection of Cells with Human FAAH
as §1, with “Supercoiled human” for “Supercoiled rat”, “[…]” for “960 μF.”
as §2, §3

Row | Compound | IC50 (rat FAAH) [nM] | IC50 (FAAH) [nM]
1 | O=C(Nc1cccnc1)N1CCC(CCc2cccc(Oc3ccc(F)cc3)c2)C1 (stereo not drawn) [Example 79, 3-{2-[3-(4-Fluoro-phenoxy)-phenyl]-ethyl}-pyrrolidine-1-carboxylic acid pyridin-3-ylamide] | 48 | 58
2 | O=C(Nc1ccc(-n2nccn2)nc1)N1CC(CCOc2cccc(Oc3ccc(Cl)cc3)c2)C1 [Example 39, 3-{2-[3-(4-Chloro-phenoxy)-phenoxy]-ethyl}-azetidine-1-carboxylic acid (6-[1,2,3]triazol-2-yl-pyridin-3-yl)-amide] | 10 | 13
3 | O=C(Nc1cccnc1)N1CC(COc2ccc(Br)cc2)C1 [Example 3, 3-(4-Bromo-phenoxymethyl)-azetidine-1-carboxylic acid pyridin-3-ylamide] | > 10000 | > 10000
4 | O=C(Nc1cncc2ccccc12)N1CC(CCOc2cccc(Oc3ccc(Cl)cc3)c2)C1 [Example 38, 3-{2-[3-(4-Chloro-phenoxy)-phenoxy]-ethyl}-azetidine-1-carboxylic acid isoquinolin-4-ylamide] | 5 | 27
5 | O=C(Nc1cccnc1)N1CC(COc2cccc(C(F)(F)F)c2)C1 [Example 8, 3-(3-Trifluoromethyl-phenoxymethyl)-azetidine-1-carboxylic acid pyridin-3-ylamide, trifluoroacetate salt] | 620 | 2400
6 | O=C(Nc1cccnc1)N1CCC(Cc2ccc3c(c2)OC(F)(F)O3)C1 (stereo not drawn) [Example 71, 3-(2,2-Difluoro-benzo[1,3]dioxol-5-ylmethyl)-pyrrolidine-1-carboxylic acid pyridin-3-ylamide] | > 10000 | > 10000
7 | CS(=O)(=O)c1ccc(Oc2cccc(OCC3CCN(C(=O)Nc4cnccc4Cl)C3)c2)cc1 (stereo not drawn) [Example 50, N-(4-Chloropyridin-3-yl)-3-({3-[4-(methylsulfonyl)phenoxy]phenoxy}methyl)pyrrolidine-1-carboxamide] | 97 | 9
8 | C#Cc1cccc(OCCC2CN(C(=O)Nc3cccnc3)C2)c1 [Example 37, 3-[2-(3-Ethynyl-phenoxy)-ethyl]-azetidine-1-carboxylic acid pyridin-3-ylamide, trifluoroacetate salt] | 820 | 140
9 | O=C(Nc1cnc2ccccn12)N1CC(CCOc2cccc(Oc3ccc(Cl)cc3)c2)C1 [Example 42, 3-{2-[3-(4-Chloro-phenoxy)-phenoxy]-ethyl}-azetidine-1-carboxylic acid imidazo[1,2-a]pyridin-3-ylamide] | 24 | 30
10 | O=C(Nc1cccnc1)N1CC(CCOc2cccc(Oc3ccccc3)c2)C1 [Example 32, 3-[2-(3-Phenoxy-phenoxy)-ethyl]-azetidine-1-carboxylic acid pyridin-3-ylamide] | 430 | 360
11 | O=C(Nc1cccnc1)N1CC(CCOc2ccc(Cl)c(Cl)c2)C1 [Example 34, 3-[2-(3,4-Dichloro-phenoxy)-ethyl]-azetidine-1-carboxylic acid pyridin-3-ylamide] | 54 | 30
12 | O=C(Nc1cccnc1)N1CC(COc2ccc3c(c2)CCCC3)C1 [Example 13, 3-(5,6,7,8-Tetrahydro-naphthalen-2-yloxymethyl)-azetidine-1-carboxylic acid pyridin-3-ylamide] | 1700 | 2500
13 | CCCCOc1cccc(OCCC2CN(C(=O)Nc3cccnc3)C2)c1 [Example 33, 3-[2-(3-Butoxy-phenoxy)-ethyl]-azetidine-1-carboxylic acid pyridin-3-ylamide] | 2000 | 34
14 | O=C(Nc1cccnc1)N1CC(CCOc2ccc(Cl)c(C(F)(F)F)c2)C1 [Example 45, 3-[2-(4-Chloro-3-trifluoromethyl-phenoxy)-ethyl]-azetidine-1-carboxylic acid pyridin-3-ylamide] | 43 | 700
15 | O=C(Nc1cccnc1)N1CC(COc2ccc(C(F)(F)F)c(Cl)c2)C1 [Example 10, 3-(3-Chloro-4-trifluoromethyl-phenoxymethyl)-azetidine-1-carboxylic acid pyridin-3-ylamide] | 300 | 1400
16 | O=C(Nc1cccnc1)N1CC(COc2ccc3ccccc3c2)C1 [Example 20, 3-(Naphthalen-2-yloxymethyl)-azetidine-1-carboxylic acid pyridin-3-ylamide] | 1600 | 1000
17 | O=C(Nc1cccnc1)N1CCC(CCc2ccc3c(c2)OC(F)(F)O3)C1 (stereo not drawn) [Example 77, 3-[2-(2,2-Difluoro-benzo[1,3]dioxol-5-yl)-ethyl]-pyrrolidine-1-carboxylic acid pyridin-3-ylamide] | 7000 | 5000
18 | O=C(Nc1cccnc1)N1CC(COc2ccc(OCc3ccccc3)cc2)C1 [Example 19, 3-(4-Benzyloxy-phenoxymethyl)-azetidine-1-carboxylic acid pyridin-3-ylamide] | > 10000 | > 10000
